From patent US20090105172A1, “Stabilized Aptamers to PSMA and Their Use as Prostate Cancer Therapeutics” (priority 2005, published 2009)
Strand notation (5' to 3'): a small letter for the sugar, then the base; units joined by * are phosphorothioate-linked, units joined directly phosphodiester-linked; [ ] holds rarer units or linkages, { } end groups; capitals alone tell only the bases. {NH2} = amine modification, hexylamine terminal group for chemical coupling; [invdT] = inverted (3'-3') thymidine; d = 2'-deoxy (DNA); m = 2'-O-methyl; r = 2'-OH (RNA); f = 2'-fluoro

Assays:
[1] = docetaxel in combination with prednisone (cited clinical trial, not the aptamer), every three weeks; cited from earlier work
[2] = Plasma stability time course assay; format: in vitro ADME; settings: 95% human plasma, 37° C.
Description: Plasma stability of each construct was measured using a plasma stability time course assay over 0, 1, 3, 10, 30, and 100 hours. A reaction was set up for each aptamer tested in an eppendorf tube using 95% human plasma (20 μl per time point), an appropriate concentration of aptamer (determined by the highest predicted dosing level (CMax)), and a sufficient amount of spiked 5′-end labeled aptamer such that a 1:10 dilution of the reaction will be over 1000 cpm, brought to total volume with 1×PBS. When assembling the reaction, the plasma was added last, and the reactions were immediately added to a 37° C. heat block. A reaction for each aptamer tested containing 1×PBS instead of plasma was used as a 0 hour time point. At each designated time point, 20 μl was withdrawn from each reaction and added to an appropriately labeled eppendorf tube containing 200 μl of formamide loading dye, and was immediately snap frozen in liquid nitrogen and stored at −20° C. After all the samples were collected 20 μl of each plasma sample/loading dye was aliquoted into separate tubes, and 2 μl of 1% SDS was added to each tube (final SDS concentration 0.1%). The samples containing 0.1% SDS were heated at 90° C. for 10-15 minutes. […]
The percentage of the parent aptamer remaining for each time-point was determined by quantifying the parent aptamer band and dividing by the total counts in the lane. […]

PSMA NAALADase activity = PSMA NAALADase activity (Homo sapiens, UniProt Q04609); experiment: NAALADase inhibition assay; format: biochemical; settings: relative to parent
Description: These point mutant constructs were assessed for activity in terms of inhibition of PSMA NAALADase activity. The NAALADase assay was performed in 96 well format. PSMA aptamers were serially diluted in 1× reaction buffer (40 mM Tris-HCl, pH 7.4, 0.1 mM ZnSO4, 0.1 mg/in L BSA) in a standard 96 well plate to be tested at a final concentration range from 30 pM to 1 μM. The enzyme was prepared by diluting 30 μL of 100 nM PSMA into 8 mL of reaction buffer, and kept cool on ice. The substrate was prepared by adding 19 μl of NAAG [Glutamate-3,4-^3H], 50.8 Ci/mmol, 19.7 μM (Perkin-Elmer, Wellesley, Mass., NET1082) into 2.2 mL of reaction buffer.
Following preparation of all reagents, 4 μl of each serially diluted aptamer was added to a separate 96 well plate (the reaction plate). 76 μl of diluted enzyme was added to the corresponding wells containing aptamer. 80 μl of reaction buffer was added to one column of wells to serve as a background control. The diluted substrate and reaction plate were then moved to a room at 37° C. and allowed to equilibrate for 10 minutes. After temperature equilibration, 20 μl of the prepared substrate was added to each well using a 12 channel pipet for a final volume of 100 μl/well, and a final concentration of […] enzyme and 30 nM substrate per well. A column of wells containing enzyme and substrate only was used as a high control. The aptamer/enzyme/substrate reaction was incubated at 37° C. for 15 minutes, and stopped by the addition of 100 μl of quench buffer (100 mM sodium phosphate, pH 7.4, 2 mM EDTA).
To separate the cleavage products, […] and Glutamate, from the substrate, an AG 1-X8, 200-400 mesh, formate resin (BioRad, Hercules, Calif., # 140-1454) was used. The resin was prepared by forming a 1:1 slurry in H2O, and adding 140 μl per 96 well using a Multiscreen filter plate (Multiscreen, 1.2 μm filter plates (Millipore, Billerica, Mass., # MABVN1250)). […] The plate was sealed and read using a Packard Topcount Microplate Scintillation Counter. […]

PC-3 cells (PSMA−) = experiment: FACS binding assay, control cell line; format: cell-based; settings: FACS histogram
Description: To prepare aptamers for the FACS assay, PSMA aptamers were serially diluted (0-1 uM) in FACS buffer (1×DPBS w/Ca^++/Mg^++ (Gibco, Carlsbad, Calif.) supplemented with 10 mg/mL salmon sperm DNA & 0.2% Na Azide), in a V-bottom 96 well plate, at the concentrations to be tested. LNCaP and PC-3 cells (ATCC, Manassas, Va.) were harvested with trypsin, and 200,000 cells/well were counted, washed once with 1×DPBS (with Ca^++ and Mg^+) and resuspended in 200 μl of FACS Buffer. The 200 μl of cells in FACS buffer were added to individual wells of a new 96 well plate, pelleted by centrifugation (1300 rpm for 5 minutes), and resuspended in 100 μl of the appropriate concentration of diluted aptamer. FACS buffer, a-PSMA antibody (3C6) (Northwest Biotherapeutics, Bothell, Wash., Cat #: 60-5002) and an irrelevant fluorescein isothiocyanate (“FITC”) mouse IgG1 isotype control antibody (BD Pharmingen, San Diego, Calif., Cat#: 554679) were used as controls. The wells of aptamer/cell mixture were incubated at room temperature for 20-30 minutes. […]
(§1) Cell samples were analyzed on a FACS Scan machine (Becton Dickinson, San Jose, Calif.) under the following parameters: FSC/SSC, FL-1/FSC, FL-3/FSC. The unstained and/or isotype controls were used to establish gating parameters, and the data was analyzed using Cell Quest Pro software version 5.1.1 (Becton Dickinson Immunocytometry Systems, San Jose, Calif.).

LNCaP cells (PSMA+) = experiment: LNCaP FACS binding assay with fluorescein-labeled aptamers; format: cell-based; settings: FACS histogram
Description: To prepare aptamers for the FACS assay, PSMA aptamers were serially diluted (0-1 uM) in FACS buffer (1×DPBS w/Ca^++/Mg^++ (Gibco, Carlsbad, Calif.) supplemented with 10 mg/mL salmon sperm DNA & 0.2% Na Azide), in a V-bottom 96 well plate, at the concentrations to be tested. LNCaP and PC-3 cells (ATCC, Manassas, Va.) were harvested with trypsin, and 200,000 cells/well were counted, washed once with 1×DPBS (with Ca^++ and Mg^+) and resuspended in 200 μl of FACS Buffer. The 200 μl of cells in FACS buffer were added to individual wells of a new 96 well plate, pelleted by centrifugation (1300 rpm for 5 minutes), and resuspended in 100 μl of the appropriate concentration of diluted aptamer. FACS buffer, a-PSMA antibody (3C6) (Northwest Biotherapeutics, Bothell, Wash., Cat #: 60-5002) and an irrelevant fluorescein isothiocyanate (“FITC”) mouse IgG1 isotype control antibody (BD Pharmingen, San Diego, Calif., Cat#: 554679) were used as controls. The wells of aptamer/cell mixture were incubated at room temperature for 20-30 minutes.
After incubation, 180 μl of FACS buffer (plus 10 mg/mL ssDNA, and 0.2% Na Azide) was added to each well to quench the reaction and cells were pelleted by centrifugation.
Anti-fluorescein/Oregon Green®, rabbit IgG fraction, Alexa Fluor® 488 conjugate (Molecular Probes, Eugene, Oreg., Cat#: A11090) was diluted 1:100 in FACS buffer (100 μl/well) as the secondary antibody for the aptamer-FITC conjugates and FITC-mouse IgG isotype control. FITC Rat anti-mouse IgG1 (A85-1) (BD Pharmingen, San Diego, Calif., Cat#: 553443) was diluted in 1:100 in FACS Buffer as the secondary for the α-PSMA antibody. After centrifugation, the cell pellets were resuspended in 100 μl of the appropriate diluted secondary antibody, and incubated 10 minutes at room temperature. After incubation, 180 μl of FACS buffer was added to each well to quench the reaction, and cells were pelleted by centrifugation.
A tertiary antibody which recognizes the Alexa Fluor® 488 goat anti-rabbit IgG was prepared to further amplify the Alexa Fluor signal. Alexa Fluor® 488 goat anti-rabbit IgG (H+ L) (Molecular Probes, Eugene, Oreg., Cat#: A11034) was diluted 1:100 in FACS buffer, and the pelleted cells were resupsended in 100 μl of the tertiary antibody and incubated for 10 minutes at room temperature. […]
as §1

Chain of PSMA NAALADase activity (Q04609 with tags, fused parts or gaps limits assumed): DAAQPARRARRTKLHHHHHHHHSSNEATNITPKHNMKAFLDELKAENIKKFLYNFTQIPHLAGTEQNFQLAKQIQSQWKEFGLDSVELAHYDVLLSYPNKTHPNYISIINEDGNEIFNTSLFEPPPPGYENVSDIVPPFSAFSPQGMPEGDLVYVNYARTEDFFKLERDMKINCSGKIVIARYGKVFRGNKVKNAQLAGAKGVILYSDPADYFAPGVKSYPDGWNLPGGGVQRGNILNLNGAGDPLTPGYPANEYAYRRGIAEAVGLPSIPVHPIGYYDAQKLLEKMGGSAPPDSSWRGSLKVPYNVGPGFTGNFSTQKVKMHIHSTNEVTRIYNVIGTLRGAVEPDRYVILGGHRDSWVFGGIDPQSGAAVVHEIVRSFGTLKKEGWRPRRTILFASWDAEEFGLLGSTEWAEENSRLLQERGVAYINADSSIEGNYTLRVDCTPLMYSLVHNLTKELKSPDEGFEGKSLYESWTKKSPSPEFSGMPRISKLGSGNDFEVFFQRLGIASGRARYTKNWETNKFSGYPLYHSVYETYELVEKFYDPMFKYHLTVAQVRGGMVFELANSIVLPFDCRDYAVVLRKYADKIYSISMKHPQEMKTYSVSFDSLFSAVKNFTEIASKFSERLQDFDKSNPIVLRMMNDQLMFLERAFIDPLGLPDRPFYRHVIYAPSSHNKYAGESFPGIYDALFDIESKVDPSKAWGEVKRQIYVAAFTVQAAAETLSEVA

CC(=O)O[C@@]12CO[C@@H]1C[C@H](O)[C@@]1(C)C(=O)[C@H](O)C3=C(C)[C@@H](OC(=O)[C@H](O)[C@@H](NC(=O)OC(C)(C)C)c4ccccc4)C[C@@](O)([C@@H](OC(=O)c4ccccc4)[C@H]21)C3(C)C [Taxotere, docetaxel]
survival advantage over control group (mitoxantrone and prednisone) [1]: approximately 2.5 months

NH2-mCmGmGmAfCfCmGAAfCAmAmGmGmCfCfUGAfCfUfUfCfUAfUAfCfUAAmGmCmCmUAfCmGfUmUmCmCmG-3T ({NH2}-mCmGmGmAfCfCmGrArAfCrAmAmGmGmCfCfUrGrAfCfUfUfCfUrAfUrAfCfUrArAmGmCmCmUrAfCmGfUmUmCmCmG[invdT]; further chemistry not fully specified) [ARC1113, ribo-containing aptamer based on ARC 591 with fully-stabilized helical stems and a 3′-cap]
half life (T1/2) in plasma [2]: 20 h

mCmGmGmAfCfCmGdAdAfCmAmAmGmGmCfCfU-s-dGmAfCfUfUfCfUmAfUmAfCfUdAmAmGmCmCmUmAfCmGfUmUmCmCmG-3T (mCmGmGmAfCfCmGdAdAfCmAmAmGmGmCfCfU*dGmAfCfUfUfCfUmAfUmAfCfUdAmAmGmCmCmUmAfCmGfUmUmCmCmG[invdT]) [ARC1725, ribo-free version based on ARC591]
half life (T1/2) in plasma [2]: 11 h
activity in the NAALADase inhibition assay (PSMA NAALADase activity): retained full activity

B1: GGGAGGACGAUGCGGACCGAAAAAGACCUGAfCfIUfCfUAfUAfCfUAAGfUfCfUAf CGfTUIJfCfCfCAGAfCGAfCfUfCGfCfCfCGA (nucleic acid)
chain: GGGAGGACGAUGCGGACCGAAAAAGACCUGACUUCUAUACUAAGUCUACGUUCCCAGACGACUCGCCCGA
modifications: 2'-fluoro at CU, RNA at AG, backbone not given here
notes: existing PSMA specific aptamer of rRfY composition from U.S. Ser. No. 09/978,969
binding to PC-3 (PSMA−) cells (PC-3 cells (PSMA−)): not to PC-3 (PSMA−) cells
binding to LNCaP (PSMA+) cells (LNCaP cells (PSMA+)): binding to LNCaP (PSMA+) cells
